Columns and labels:
[1] = target: T1, His tagged full-length PTPN1 protein (Homo sapiens, UniProt P18031); assay: Mobility shift assay (MSA) to determine potency of PTPN1 inhibitors; assay type: biochemical; conditions: 0.5 nM enzyme, 2 μM substrate
T1 construct: made in house
T1 sequence (P18031 with tags, fused parts or gaps): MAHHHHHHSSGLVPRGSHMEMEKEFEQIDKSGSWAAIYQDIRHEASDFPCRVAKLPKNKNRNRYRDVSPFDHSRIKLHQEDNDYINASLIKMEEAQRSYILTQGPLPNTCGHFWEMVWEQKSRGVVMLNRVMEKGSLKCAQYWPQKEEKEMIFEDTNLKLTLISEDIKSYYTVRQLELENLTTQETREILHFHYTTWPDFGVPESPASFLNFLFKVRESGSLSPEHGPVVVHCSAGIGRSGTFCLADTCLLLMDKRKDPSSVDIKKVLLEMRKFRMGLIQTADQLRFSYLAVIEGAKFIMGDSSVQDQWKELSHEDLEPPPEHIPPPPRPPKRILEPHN
Experimental: Compound activity was determined using in house His tagged full-length PTPN1 protein (SEQ ID NO: 3) in an in vitro enzymatic reaction. The enzymatic assay used to determine activity is a mobility shift assay using a LabChip EZ Reader by Caliper Life Sciences. The enzymatic reaction was carried out in assay buffer (50 mM HEPES pH 7.5, 1 mM EGTA, 10 mM EDTA. 0.01% Tween® 20, and 2 mM DTT). The compounds were dispensed on a white 384 well ProxiPlate™ (PerkinElmer Cat #6008289) plate using a Labcyte Echo® liquid handler at varying concentrations (12 point, 1:3 dilution). The enzyme (at 0.5 nM) was incubated with compound for 10 minutes at room temperature. Then the substrate (phosphorylated insulin receptor probe sequence: ((OG488)-(NH—CH2—CH2—O—CH2—CH2—O—CH2—CO)-T-R-D-I-(PY)-E-T-D-Y—Y—R—K—K—NH2) (SEQ ID NO: 2) was added at 2 μM to the plates and incubated for another 10 minutes at room temperature. Finally, a quench solution (water and 4-bromo-3-(2-oxo-2-propoxyethoxy)-5-(3-{[1-(phenylmethanesulfonyl)piperidin-4-yl]amino}phenyl)thiophene-2-carboxylic acid) was added to the plates, which were then run on the EZ Reader (excitation 488 nm, emission 530 nm) to measure % conversion (the amount of phosphorylated substrate which was de-phosphorylated by PTPN1). […] The % inhibition was then used to calculate the IC50 values.

[2] = target: T2, His tagged PTPN2 (TC45) protein (Homo sapiens, UniProt P17706); assay: Mobility shift assay (MSA) to determine potency of PTPN2 inhibitors; assay type: biochemical; conditions: 0.5 nM enzyme, 2 μM substrate
T2 construct: made in house
T2 sequence (P17706 with tags, fused parts or gaps isoform P17706-2): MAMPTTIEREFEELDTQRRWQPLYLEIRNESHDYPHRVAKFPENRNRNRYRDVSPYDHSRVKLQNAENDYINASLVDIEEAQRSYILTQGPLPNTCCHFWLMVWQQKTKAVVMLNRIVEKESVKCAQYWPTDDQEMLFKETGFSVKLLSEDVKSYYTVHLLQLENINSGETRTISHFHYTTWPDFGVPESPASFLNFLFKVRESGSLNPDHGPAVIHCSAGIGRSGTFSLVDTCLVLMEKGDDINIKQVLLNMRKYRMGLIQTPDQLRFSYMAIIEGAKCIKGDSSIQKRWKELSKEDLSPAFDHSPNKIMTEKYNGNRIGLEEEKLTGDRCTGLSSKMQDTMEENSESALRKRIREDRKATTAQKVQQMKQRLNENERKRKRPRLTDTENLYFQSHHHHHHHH
Experimental: Compound activity was determined using in house His tagged PTPN2 (TC45) protein (SEQ ID NO: 1) in an in vitro enzymatic reaction. The enzymatic assay used to determine activity was a mobility shift assay using a LabChip EZ Reader by Caliper Life Sciences. The enzymatic reaction was carried out in assay buffer (50 mM HEPES pH 7.5, 1 mM EGTA, 10 mM EDTA, 0.01% Tween® 20, and 2 mM DTT). The compounds were dispensed on a white 384 well ProxiPlate™ (PerkinElmer Catalog #6008289) plate using the Labcyte Echo at varying concentrations (12 point, 1:3 dilution). The enzyme (at 0.5 nM) was incubated with compound for 10 minutes at room temperature. Then the substrate (phosphorylated insulin receptor probe sequence: ((OG488)-(NH—CH2—CH2—O—CH2—CH2—O—CH2—CO)-T-R-D-I-(PY)-E-T-D-Y—Y—R—K—K—NH2) (SEQ ID NO: 2) was added at 2 μM to the plates and incubated for another 10 minutes at room temperature. Finally, a quench solution (water and 4-bromo-3-(2-oxo-2-propoxyethoxy)-5-(3-{[1-(phenylmethanesulfonyl)piperidin-4-yl]amino}phenyl)thiophene-2-carboxylic acid) was added to the plates, which were then run on the EZ Reader (excitation 488 nm, emission 530 nm) to measure % conversion (the amount of phosphorylated substrate which was de-phosphorylated by PTPN2). […] The % inhibition was then used to calculate the IC50 values.

| IC50 [1] [nM] | SMILES | IC50 [2] [nM] |
| --- | --- | --- |
| 10 to 100 | CC(C)CCCN1CCc2cc(O)c(N3CC(=O)NS3(=O)=O)c(F)c2C1 [Compound 145] | 10 to 100 |
| 10 to 100 | O=C1CN(c2c(O)cc3c(c2F)CN(CCCC2CC2)CC3)S(=O)(=O)N1 [Compound 159] | 10 to 100 |
| 10 to 100 | O=C1CN(c2c(O)cc3c(c2F)CN(CC2CC(F)(F)C2)CC3)S(=O)(=O)N1 [Compound 162] | 1 to 10 |
| > 100 | CC(C)NCCN1CCc2cc(O)c(N3CC(=O)NS3(=O)=O)c(F)c2C1 [Compound 164] | 10 to 100 |
| 10 to 100 | O=C1CN(c2c(O)cc3c(c2F)CN(CC2CNC2)CC3)S(=O)(=O)N1 [Compound 165] | 10 to 100 |
| 10 to 100 | O=C1CN(c2c(O)cc3c(c2F)CN(CC2CC4(CC4)C2)CC3)S(=O)(=O)N1 [Compound 168] | 10 to 100 |
| > 100 | CC(C)(O)CCN1CCc2cc(O)c(N3CC(=O)NS3(=O)=O)c(F)c2C1 [Compound 170] | 10 to 100 |
| 10 to 100 | O=C1CN(c2c(O)cc3c(c2F)CN(CCC2CCCCC2)CC3)S(=O)(=O)N1 [Compound 179] | 10 to 100 |
| 10 to 100 | O=C1CN(c2c(O)cc3c(c2F)CN(CCC2CC(F)(F)C2)CC3)S(=O)(=O)N1 [Compound 192] | 10 to 100 |
| 10 to 100 | O=C1CN(c2c(O)cc3c(c2F)CN(CCN2CCCC2)CC3)S(=O)(=O)N1 [Compound 193] | > 100 |
| 10 to 100 | O=C1CN(c2c(O)cc3c(c2F)CN(CCCC2CCOCC2)CC3)S(=O)(=O)N1 [Compound 196] | 10 to 100 |
| < 1 | O=C1CN(c2c(O)cc3c(c2F)C[C@H](NCCC2CCCC2)CC3)S(=O)(=O)N1 [Compound 200, 5-{(7R)-7-[(2-cyclopentylethyl)amino]-1-fluoro-3-hydroxy-5,6,7,8-tetrahydronaphthalen-2-yl}-1λ^6,2,5-thiadiazolidine-1,1,3-trione] | < 1 |
| < 1 | O=C1CN(c2c(O)cc3c(c2F)C[C@H](NCCC2CCC2)CC3)S(=O)(=O)N1 [Compound 201] | < 1 |
| 10 to 100 | O=C1CN(c2c(O)cc3c(c2F)CN(CCC2CCOCC2)CC3)S(=O)(=O)N1 [Compound 214] | 10 to 100 |
| > 100 | COCCN1CCc2cc(O)c(N3CC(=O)NS3(=O)=O)c(F)c2C1 [Compound 216] | > 100 |
| > 100 | COCCCN1CCc2cc(O)c(N3CC(=O)NS3(=O)=O)c(F)c2C1 [Compound 217] | > 100 |
| 10 to 100 | NCCCN1CCc2cc(O)c(N3CC(=O)NS3(=O)=O)c(F)c2C1 [Compound 218] | > 100 |
| 10 to 100 | O=C1CN(c2c(O)cc3c(c2F)CN(CCCC2CCNCC2)CC3)S(=O)(=O)N1 [Compound 219] | 10 to 100 |
| 10 to 100 | CC(C)CCN1CCc2cc(O)c(N3CC(=O)NS3(=O)=O)c(F)c2C1 [Compound 220] | 10 to 100 |

Continued, compound first:

| SMILES | IC50 [1] [nM] | IC50 [2] [nM] |
| --- | --- | --- |
| CC(C)CCC(=O)N1CCc2cc(O)c(N3CC(=O)NS3(=O)=O)c(F)c2C1 [Compound 144] | 10 to 100 | 1 to 10 |
| O=C1CN(c2c(O)cc3c(c2F)CN(CCCCC(F)(F)F)CC3)S(=O)(=O)N1 [Compound 153, 5-[8-fluoro-6-hydroxy-2-(5,5,5-trifluoropentyl)-1,2,3,4-tetrahydroisoquinolin-7-yl]-1λ^6,2,5-thiadiazolidine-1,1,3-trione] | 10 to 100 | 10 to 100 |
| O=C1CN(c2c(O)cc3c(c2F)CC(NCc2ccccn2)CC3)S(=O)(=O)N1 (stereo not shown) [Compound 155] | 10 to 100 | 10 to 100 |
| CCCCC(=N)N1CCc2cc(O)c(N3CC(=O)NS3(=O)=O)c(F)c2C1 [Compound 158] | > 100 | 10 to 100 |
| O=C1CN(c2c(O)cc3c(c2F)CN(C2CC4(CNC4)C2)CC3)S(=O)(=O)N1 [Compound 160] | 10 to 100 | 10 to 100 |
| O=C1CN(c2c(O)cc3c(c2F)CN(CCCCCC(F)(F)F)CC3)S(=O)(=O)N1 [Compound 161] | 10 to 100 | 1 to 10 |
| O=C1CN(c2c(O)cc3c(c2F)CN(C2CNC2)CC3)S(=O)(=O)N1 [Compound 163] | > 100 | 10 to 100 |
| CC(C)C1CN(C2CCc3cc(O)c(N4CC(=O)NS4(=O)=O)c(F)c3C2)CCO1 (stereo not shown) [Compound 181] | 1 to 10 | 1 to 10 |
| O=C1CN(c2c(O)cc3c(c2F)CN(Cc2ccccn2)CC3)S(=O)(=O)N1 [Compound 184] | > 100 | > 100 |
| O=C1CN(c2c(O)cc3c(c2F)CN(c2ccccn2)CC3)S(=O)(=O)N1 [Compound 191] | 10 to 100 | 10 to 100 |
| Cc1n[nH]c(C)c1CCN1CCc2cc(O)c(N3CC(=O)NS3(=O)=O)c(F)c2C1 [Compound 194] | 1 to 10 | 1 to 10 |
| N[C@@H]1CCc2cc(O)c(N3CC(=O)NS3(=O)=O)c(F)c2C1 [Compound 198] | > 100 | 10 to 100 |
| O=C1CN(c2c(O)cc3c(c2F)C[C@H](NCCC2CC(F)(F)C2)CC3)S(=O)(=O)N1 [Compound 202] | 1 to 10 | < 1 |
| CCC(CC)CCN[C@@H]1CCc2cc(O)c(N3CC(=O)NS3(=O)=O)c(F)c2C1 [Compound 204] | 1 to 10 | < 1 |
| CC(C)CCNC(=O)N1CCc2cc(O)c(N3CC(=O)NS3(=O)=O)c(F)c2C1 [Compound 205] | 10 to 100 | 1 to 10 |
| CC(C)CNC(=O)N1CCc2cc(O)c(N3CC(=O)NS3(=O)=O)c(F)c2C1 [Compound 206] | 10 to 100 | 10 to 100 |
| O=C1CN(c2c(O)cc3c(c2F)CN(CCCc2cccnc2)CC3)S(=O)(=O)N1 [Compound 207] | 10 to 100 | 10 to 100 |
| Cc1noc(C)c1CN1CCc2cc(O)c(N3CC(=O)NS3(=O)=O)c(F)c2C1 [Compound 208] | 10 to 100 | 10 to 100 |
| Cc1nn(C)c(C)c1CCN1CCc2cc(O)c(N3CC(=O)NS3(=O)=O)c(F)c2C1 [Compound 209] | 1 to 10 | 1 to 10 |
| O=C1CN(c2c(O)cc3c(c2F)CN(CCc2cncnc2)CC3)S(=O)(=O)N1 [Compound 210] | 10 to 100 | > 100 |
| Cc1noc(C)c1CCN1CCc2cc(O)c(N3CC(=O)NS3(=O)=O)c(F)c2C1 [Compound 211] | 1 to 10 | 1 to 10 |
| Cc1n[nH]c(C)c1CN1CCc2cc(O)c(N3CC(=O)NS3(=O)=O)c(F)c2C1 [Compound 212] | > 100 | > 100 |
| Cc1nn(C)c(C)c1CN1CCc2cc(O)c(N3CC(=O)NS3(=O)=O)c(F)c2C1 [Compound 213] | > 100 | > 100 |
| CC(C)(C)OC(=O)N1CCc2cc(O)c(N3CC(=O)NS3(=O)=O)c(F)c2C1 [Compound 221] | 1 to 10 | 10 to 100 |
| Cc1nn(C)c(C)c1CN1CC(N2CCc3cc(O)c(N4CC(=O)NS4(=O)=O)c(F)c3C2)C1 [Compound 224] | 10 to 100 | > 100 |

Source: patent US20250122160A1, “PROTEIN TYROSINE PHOSPHATASE INHIBITORS AND METHODS OF USE THEREOF” (Calico Life Sciences LLC, priority 0001, published 2025)
